A word on the Ki: it is the equilibrium dissociation constant of an inhibitor or competing ligand from its target.

Results on 6 molecules are retold here after patent US20240270744A1 (Hoffmann-La Roche Inc., priority 2021, published 2024).

For test [1], the target named is human GABAA α2β2γ1 receptor (Homo sapiens (Human), UniProt P47869+Q8N1C3). As to the kind of experiment: Radioligand binding assay, competition for [3H]RO7239181, γ1-containing GABAA subtypes. Conditions: for LogSel: Log of the γ2/γ1 Ki ratio. The procedure:
The affinity of compounds at GABAA γ1 subunit-containing receptors was measured by competition for [^3H]RO7239181 (67.3 Ci/mmol; Roche) binding to membranes from HEK293F cells (ThermoFisher R79007) expressing human (transiently transfected) receptors of composition α5β2γ1, α2β2γ1, α1β2γ1.
(§1) Harvested pellets from HEK293F cells expressing the different GABAA receptor subtypes were resuspended in Mannitol Buffer pH 7.2-7.4 (Mannitol 0.29 M, Triethylamine 10 mM, Acetic acid 10 mM, EDTA 1 mM plus protease inhibitors (20 tablets Complete, Roche Diagnostics Cat. No. 05 056 489 001 per liter)), washed two times and then resuspended at 1:10 to 1:15 dilution in the same buffer. Cell disruption was performed by stirring the suspension in a Parr vessel #4637 at 435 psi for 15 minutes, and then the suspensions were centrifuged at 1000×g for 15 minutes at 4° C. (Beckman Avanti J-HC: rotor JS-4.2). The supernatant (S1) was transferred in a 21 Schott flask and the pellet (P1) was resuspended with Mannitol Buffer up to 175 ml. The resuspended pellet was transferred into a 250 ml Corning centrifugal beaker and centrifuged at 1500×g for 10 minutes at 4° C. (Beckman Avanti J-HC: rotor JS-4.2). The supernatant (S1) was then transferred in the 21 Schott flask and the pellet was discarded. The supernatants (S1) were centrifuged in 500 ml Beckman polypropylene centrifugal beaker at 15′000×g for 30 minutes at 4° C. (Beckman Avanti J-20 XP; rotor JLA-10.500). The pellet (P2) was resuspended with Mannitol Buffer 1:1 and frozen at −80° C. The supernatant (S2) was centrifuged in 100 ml Beckman polypropylene centrifugal tubes at 48000×g for 50 minutes at 4° C. (Beckman Avanti J-20 XP; rotor JA-18). The supernatant (S3) was discarded and the pellet (P3) was resuspended with 1:1 Mannitol Buffer. The P2 and P3 protein concentration was determined with the BIORAD Standard assay method with bovine serum albumin as standard and measured on the NANO-Drop 1000. The membrane suspension was aliquots (500 μl per tube) and stored at −80° C. until required.
(§2) Membrane homogenates were resuspended and polytronised (Polytron PT1200E Kinematica AG) in Potassium Phosphate 10 mM, KCl 100 mM binding buffer at pH 7.4 to a final assay concentration determined with a previous experiment.
(§3) Assays were incubated to equilibrium for 1 hour at 4° C. and then, membranes were filtered onto unifilter (96-well white microplate with bonded GF/C filters preincubated 20-50 minutes in 0.3% Polyethylenimine) with a Filtermate 196 harvester (Packard BioScience) and washed 4 times with cold Potassium Phosphate 10 mM pH 7.4, KCl 100 mM binding buffer. After anhydrousing, filter-retained radioactivity was detected by liquid scintillation counting. Ki values were calculated using Excel-Fit (Microsoft) and are the means of two determinations.

Test [2] addresses human GABAA α1β3γ2 receptor (Homo sapiens (Human), UniProt P14867+P18507). The test is described as follows: Radioligand binding assay, competition for [3H]Flumazenil, γ2-containing GABAA subtypes. The protocol:
The affinity of compounds at GABAA γ2 subunit-containing receptors was measured by competition for [^3H]Flumazenil (81.1 Ci/mmol; Roche) binding to HEK293F cells expressing human (transiently transfected) receptors of composition α1β3γ2.
Harvested pellets from HEK293F cells expressing the different GABAA γ2 receptor subtypes were resuspended in Mannitol Buffer pH 7.2-7.4 and processed as described above for the cells expressing the GABAA γ1 subunit-containing receptors.
Assays were incubated to equilibrium for 1 hour at 4° C. and harvested onto GF/C uni-filters (Packard) by filtration using a Packard harvester and washing with ice-cold wash buffer (50 mM Tris; pH 7.5). After anhydrousing, filter-retained radioactivity was detected by liquid scintillation counting. Ki values were calculated using Excel-Fit (Microsoft) and are the means of two determinations.

In test [3] the target is human GABAA α5β2γ1 receptor (Homo sapiens (Human), UniProt P31644+Q8N1C3). As to the kind of experiment: Radioligand binding assay, competition for [3H]RO7239181, γ1-containing GABAA subtypes. As to conditions: Table 1; [3H]RO7239181 displacement, membranes from HEK293F cells, mean of two determinations. The protocol: The affinity of compounds at GABAA γ1 subunit-containing receptors was measured by competition for [^3H]RO7239181 (67.3 Ci/mmol; Roche) binding to membranes from HEK293F cells (ThermoFisher R79007) expressing human (transiently transfected) receptors of composition α5β2γ1, α2β2γ1, α1β2γ1. For better protein expression of the α2 subunit-containing receptors, the 28 amino acid long signal peptide (Met1 to Ala28) of the human GABAA α2 subunit was substituted by the 31 amino acid long signal peptide (Met1 to Ser31) of human GABAA α5 subunit.
as §1, §2
as §3, with “Radioligand binding assays were carried out in a volume of 200 μL (96-well plates) which contained 100 μL of cell membranes, [3H]RO7239181 at a concentration of 1.5 nM (α5β2γ1) or 20-30 nM (α1β2γ1, α2β2γ1) and the test compound in the range of [0.3-10000]=10^−9 M. Nonspecific binding was defined by 10×10^−6 (α5β2γ1) and 30×10^−6 M RO7239181 and typically represented less than 5% (α5β2γ1) and less than 20% (β1β2γ1, α2β2γ1) of the total binding. Assays” for “Assays”
Representative test results, obtained by the above described assay measuring binding affinity to HEK293 cells expressing human (h) receptors, are shown in the Table 1.

The target of another test is h-GABA-A α2β2γ1 (Homo sapiens (Human), UniProt P47869+Q8N1C3). The test is described as follows: Two-electrode voltage clamp electrophysiology in Xenopus oocytes expressing GABAA receptors. Type of test: cell-based. Conditions: α2β2γ1 GABAA receptor subtype expressing oocytes; reference PAMs. The procedure:
Xenopus laevis oocytes at maturation stages V-VI were used for the expression of cloned mRNA encoding GABAA receptor subunits. Oocytes ready for RNA micro-injection were bought from Ecocyte, Castrop-Rauxel, Germany and stored in modified Barth's medium (composition in mM: NaCl 88, KCl 1, NaHCO3 2.4, HEPES 10, MgSO4 0.82, CaNO3 0.33, CaCl2 0.33, pH=7.5) at 20° C. until the experiment.
Oocytes were plated in 96-well plates for microinjection using the Roboinject automated instrument (MultiChannelSystems, Reutlingen, Germany). Approximately 50 nL of an aqueous solution containing the RNA transcripts for the subunits of the desired GABAA receptor subtype was injected into each oocyte. […] Oocytes were kept in modified Barth's medium (composition in mM: NaCl 88, KCl 1, NaHCO3 […], HEPES 10, MgSO4 0.82, CaNO3 0.33, CaCl2 0.33, pH=7.5) at 20° C. until the experiment.
Electrophysiological experiments were performed using the Roboocyte instrument (MultiChannelSystems, Reutlingen, Germany) on days 3 to 5 after the micro-injection of mRNA. During the experiment the oocytes were constantly superfused by a solution containing (in mM) NaCl 90, KCl 1, HEPES 5, MgCl2 1, CaCl2 1 (pH 7.4). Oocytes were impaled by two glass microelectrodes (resistance: […]) which were filled with a solution containing KCl 1M+K-acetate 1.5 M and voltage-clamped to −80 mV. The recordings were performed at room temperature using the Roboocyte two-electrode voltage clamp system (Multichannelsystem). After an initial equilibration period of 1.5 min GABA was added for 1.5 min at a concentration evoking approximately 20% of a maximal current response (EC20). After another rest interval of 2.5 min GABA was again added evoking a response of similar amplitude and shape. […] Current traces were recorded at a digitization rate of 10 Hz during and shortly before and after the GABA application.
Each compound and concentration was tested on at least 3 oocytes. Different oocytes were used for different compound concentrations.
For the analysis, the digitized current traces of the first and second GABA response were superimposed and, if necessary, rescaled to equal maximal amplitudes. The ratio between the two responses during the time interval of test compound application was calculated point by point. The extremum of the resulting “ratio trace” was taken as the efficacy (“Fold increase”) of the compound expressed as “% modulation of GABA EC20” (100*(Fold increase−1)).
(In two-electrode clamp one electrode senses voltage and the other passes current.)

Where [4] appears, read: Ki h-GABAA α2β2γ1, Table 1, [3H]RO7239181 displacement, membranes from HEK293F cells, mean of two determinations.
Setting [5] is: Table 1, Ki α1β3γ2 (nM)/Ki α2β2γ1 (nM).
[6] abbreviates: Table 1, [3H]Flumazenil displacement, HEK293F cells, mean of two determinations, read-out: Ki h-GABAA α1β3γ2.

Read-outs that look alike come from different tables or passages of the source.

Take `Cc1cn2c(n1)[C@H](C)N=C(c1c(F)cccc1F)c1c-2cnc(C(F)(F)F)c1Cl` [Example 18, (7S)-11-chloro-9-(2,6-difluorophenyl)-4,7-dimethyl-12-(trifluoromethyl)-2,5,8,13-tetrazatricyclo[8.4.0.02,6]tetradeca-1(10),3,5,8,11,13-hexaene]: the Ki in test [1] was determined as 131 nM; in test [1] (setting [4]) it was 54.5 nM; in test [2] (setting [6]), 4170 nM; in test [3], 5.9 nM. Besides, the “γ2/γ1 Selectivity Ratio” value in test [1] (setting [5]) amounted to 77. Also, in test [1] (Table 1), the LogSel turned out to be 1.88.

Consider `C[C@@H]1N=C(c2c(F)cccc2F)c2c(cnc(C(F)(F)F)c2Cl)-n2nc(C(=O)N[C@H]3C[C@@H](O)C3)nc21` [Example 23, (7S)-11-chloro-9-(2,6-difluorophenyl)-N-cis-(3-hydroxycyclobutyl)-7-methyl-12-(trifluoromethyl)-2,3,5,8,13-pentazatricyclo[8.4.0.02,6]tetradeca-1(10),3,5,8,11,13-hexaene-4-carboxamide], for which, in test [1] (setting [5]), the “γ2/γ1 Selectivity Ratio” value was found to be 144. Also, the LogSel in test [1] (Table 1) was found to be 2.16. Further, the Ki is 101 nM in test [1] (Table 1, [3H]RO7239181 displacement, membranes from HEK293F cells, mean of two determinations, read-out: Ki h-GABAA α2β2γ1); 101 nM in test [1] (Table 2, [3H]RO7239181 displacement, read-out: Ki h-GABAA α2β2γ1); 14500 nM in test [2] (setting [6]); 9.7 nM in test [3].

With `C[C@@H]1N=C(c2c(F)cccc2F)c2c(cnc(C(F)(F)F)c2Cl)-n2nc(C(=O)N[C@H]3C[C@H](O)C3)nc21` [Example 24, (7S)-11-chloro-9-(2,6-difluorophenyl)-N-trans-(3-hydroxycyclobutyl)-7-methyl-12-(trifluoromethyl)-2,3,5,8,13-pentazatricyclo[8.4.0.02,6]tetradeca-1(10),3,5,8,11,13-hexaene-4-carboxamide], the Ki in test [1] (setting [4]) was 72.6 nM; in test [1] (Ki h-GABAA α2β2γ1, Table 2, [3H]RO7239181 displacement), 72.6 nM; in test [2] (setting [6]), 8380 nM; in test [3] it was 2.8 nM. The “γ2/γ1 Selectivity Ratio” value in test [1] (setting [5]) was found to be 115. Further, the LogSel in test [1] (Table 1) is recorded as 2.06.

Consider `Cc1ncc2n1-c1ccc(Cl)cc1C(c1ccccc1F)=NC2` [Midazolam, reference compound], for which the “potentiation of the GABA-induced current” value on h-GABA-A α2β2γ1 is reported as roughly 60%.

For the molecule `CN1C(=O)CN=C(c2ccccc2F)c2ccncc21` [RE-A, reference compound], the Ki in test [1] (Ki h-GABAA α2β2γ1, Table 3, reference compounds comparison) turned out to be 10200 nM; in test [2] it was 179 nM. Also, the “γ2/γ1 Selectivity Ratio” value in test [1] (Table 3, Ki α1β3γ2/Ki α2β2γ1) is listed as 0.018.

Take `Cc1nnc2n1-c1ccc(Cl)cc1C(c1ccccc1Cl)=NC2` [Triazolam, reference compound]: the “potentiation of the GABA-induced current” value on h-GABA-A α2β2γ1 is given as roughly 60%.
